Measured values as given in ChEMBL document CHEMBL5705888, “Substrate specificity and inhibitors of LRRK2, a protein kinase mutated in Parkinson's disease” (Biochem J, 2009).

How the values were obtained:
[1] = target: T1, Serine/threonine-protein kinase Sgk1 (Homo sapiens) (UniProt O00141); test: Inhibition of SGK1 (unknown origin) at 1 uM incubated for 30 mins in presence of [gamma-33P]ATP by multidrop micro reagent based assay relative to control; values are per cent of control
T1 sequence (whole entry): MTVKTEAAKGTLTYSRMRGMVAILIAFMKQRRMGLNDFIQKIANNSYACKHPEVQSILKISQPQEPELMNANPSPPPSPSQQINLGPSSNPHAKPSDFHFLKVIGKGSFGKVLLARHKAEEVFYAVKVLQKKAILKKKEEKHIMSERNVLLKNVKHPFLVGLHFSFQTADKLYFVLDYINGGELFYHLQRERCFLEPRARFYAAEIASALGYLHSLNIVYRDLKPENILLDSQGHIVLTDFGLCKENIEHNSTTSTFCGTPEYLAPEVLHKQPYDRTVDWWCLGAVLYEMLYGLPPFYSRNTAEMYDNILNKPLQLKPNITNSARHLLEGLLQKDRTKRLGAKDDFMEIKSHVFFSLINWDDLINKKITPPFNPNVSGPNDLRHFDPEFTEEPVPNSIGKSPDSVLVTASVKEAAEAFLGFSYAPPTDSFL

[2] = target: T2, Ephrin type-B receptor 3 (Homo sapiens) (UniProt P54753); test: Inhibition of EPH-B3 (unknown origin) at 1 uM incubated for 30 mins in presence of [gamma-33P]ATP by multidrop micro reagent based assay relative to control
T2 sequence (whole entry): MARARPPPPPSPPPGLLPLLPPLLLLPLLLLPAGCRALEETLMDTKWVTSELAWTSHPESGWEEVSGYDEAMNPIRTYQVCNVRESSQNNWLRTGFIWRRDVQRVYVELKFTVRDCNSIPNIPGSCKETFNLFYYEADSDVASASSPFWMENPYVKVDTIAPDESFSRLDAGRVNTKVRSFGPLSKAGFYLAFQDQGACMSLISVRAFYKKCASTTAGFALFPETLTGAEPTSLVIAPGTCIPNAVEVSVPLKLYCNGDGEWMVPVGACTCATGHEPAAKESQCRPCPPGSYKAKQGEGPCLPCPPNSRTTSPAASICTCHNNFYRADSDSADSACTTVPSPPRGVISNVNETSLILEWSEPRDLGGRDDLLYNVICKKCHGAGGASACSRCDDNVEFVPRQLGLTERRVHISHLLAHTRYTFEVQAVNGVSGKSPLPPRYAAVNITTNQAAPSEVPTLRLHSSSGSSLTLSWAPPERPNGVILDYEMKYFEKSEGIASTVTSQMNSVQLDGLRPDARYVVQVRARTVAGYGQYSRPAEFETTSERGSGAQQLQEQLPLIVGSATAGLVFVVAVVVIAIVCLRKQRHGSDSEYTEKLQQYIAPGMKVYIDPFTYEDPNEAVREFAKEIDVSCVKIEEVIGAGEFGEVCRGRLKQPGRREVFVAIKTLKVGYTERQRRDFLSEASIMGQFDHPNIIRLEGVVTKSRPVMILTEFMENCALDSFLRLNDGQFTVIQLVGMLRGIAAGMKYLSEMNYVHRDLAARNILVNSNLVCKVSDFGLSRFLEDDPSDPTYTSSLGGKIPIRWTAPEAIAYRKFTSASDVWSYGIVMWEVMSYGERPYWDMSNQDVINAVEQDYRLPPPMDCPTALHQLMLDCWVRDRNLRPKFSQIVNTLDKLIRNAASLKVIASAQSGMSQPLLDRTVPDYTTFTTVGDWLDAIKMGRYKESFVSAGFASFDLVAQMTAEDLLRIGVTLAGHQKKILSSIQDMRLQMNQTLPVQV

[3] = target: T3, Dual specificity protein kinase TTK (Homo sapiens) (UniProt P33981); test: Inhibition of TTK (unknown origin) at 1 uM incubated for 30 mins in presence of [gamma-33P]ATP by multidrop micro reagent based assay relative to control; values are per cent of control
T3 sequence (whole entry): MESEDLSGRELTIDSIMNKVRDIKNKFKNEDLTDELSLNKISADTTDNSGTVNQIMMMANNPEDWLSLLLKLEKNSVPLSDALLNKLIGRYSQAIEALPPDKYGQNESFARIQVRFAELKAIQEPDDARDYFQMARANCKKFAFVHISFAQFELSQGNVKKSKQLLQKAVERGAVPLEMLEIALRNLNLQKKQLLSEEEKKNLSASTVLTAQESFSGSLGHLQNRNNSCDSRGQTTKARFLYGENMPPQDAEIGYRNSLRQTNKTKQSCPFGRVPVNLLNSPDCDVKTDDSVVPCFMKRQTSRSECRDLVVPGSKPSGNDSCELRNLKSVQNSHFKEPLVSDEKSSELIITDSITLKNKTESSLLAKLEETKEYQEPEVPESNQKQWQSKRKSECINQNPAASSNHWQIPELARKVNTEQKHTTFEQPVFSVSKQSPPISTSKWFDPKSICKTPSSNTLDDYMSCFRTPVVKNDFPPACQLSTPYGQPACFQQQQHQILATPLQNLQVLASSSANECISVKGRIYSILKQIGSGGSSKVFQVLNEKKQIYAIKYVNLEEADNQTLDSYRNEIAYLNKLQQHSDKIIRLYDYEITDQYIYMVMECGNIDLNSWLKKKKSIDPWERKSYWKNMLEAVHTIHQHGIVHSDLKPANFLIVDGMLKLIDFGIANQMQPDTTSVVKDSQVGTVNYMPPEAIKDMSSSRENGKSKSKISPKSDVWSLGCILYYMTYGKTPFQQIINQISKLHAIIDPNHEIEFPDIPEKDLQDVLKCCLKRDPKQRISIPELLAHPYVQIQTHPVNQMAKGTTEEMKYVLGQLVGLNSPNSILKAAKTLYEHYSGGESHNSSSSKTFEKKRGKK

[4] = target: Casein kinase 2 (Homo sapiens) (UniProt P67870+P68400+P19784+Q8NEV1); test: Inhibition of CK2 (unknown origin) at 1 uM incubated for 30 mins in presence of [gamma-33P]ATP by multidrop micro reagent based assay relative to control; values are per cent of control
[5] = target: Serine/threonine-protein kinase PAK 6 (Homo sapiens) (UniProt Q9NQU5); test: Inhibition of PAK6 (unknown origin) at 10 uM incubated for 30 mins in presence of [gamma-33P]ATP by multidrop micro reagent based assay relative to control; values are per cent of control
Sequence of Serine/threonine-protein kinase PAK 6 (Homo sapiens) (Q9NQU5 whole entry, looked up): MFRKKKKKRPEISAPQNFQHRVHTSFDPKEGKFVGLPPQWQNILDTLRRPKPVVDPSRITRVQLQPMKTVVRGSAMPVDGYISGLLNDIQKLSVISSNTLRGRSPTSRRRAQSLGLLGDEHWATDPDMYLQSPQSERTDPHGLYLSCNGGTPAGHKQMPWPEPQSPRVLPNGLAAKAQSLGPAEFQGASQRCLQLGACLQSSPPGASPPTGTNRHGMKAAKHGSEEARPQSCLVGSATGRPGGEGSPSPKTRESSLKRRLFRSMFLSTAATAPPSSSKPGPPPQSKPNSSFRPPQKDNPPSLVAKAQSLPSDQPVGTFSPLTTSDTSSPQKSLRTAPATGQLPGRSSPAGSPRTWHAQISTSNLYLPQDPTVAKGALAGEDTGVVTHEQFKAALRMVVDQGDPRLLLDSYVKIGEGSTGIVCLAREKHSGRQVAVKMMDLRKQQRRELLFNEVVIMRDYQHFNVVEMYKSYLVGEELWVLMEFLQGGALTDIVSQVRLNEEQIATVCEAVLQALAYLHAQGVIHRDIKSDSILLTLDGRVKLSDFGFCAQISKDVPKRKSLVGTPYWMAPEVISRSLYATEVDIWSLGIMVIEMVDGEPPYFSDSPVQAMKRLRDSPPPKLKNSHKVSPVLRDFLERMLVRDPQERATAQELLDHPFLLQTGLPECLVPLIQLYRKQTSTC

[6] = target: Aurora kinase B (Homo sapiens) (UniProt Q96GD4); test: Inhibition of Aurora B kinase (unknown origin) at 10 uM incubated for 30 mins in presence of [gamma-33P]ATP by multidrop micro reagent based assay relative to control; values are per cent of control
Sequence of Aurora kinase B (Homo sapiens) (Q96GD4 whole entry): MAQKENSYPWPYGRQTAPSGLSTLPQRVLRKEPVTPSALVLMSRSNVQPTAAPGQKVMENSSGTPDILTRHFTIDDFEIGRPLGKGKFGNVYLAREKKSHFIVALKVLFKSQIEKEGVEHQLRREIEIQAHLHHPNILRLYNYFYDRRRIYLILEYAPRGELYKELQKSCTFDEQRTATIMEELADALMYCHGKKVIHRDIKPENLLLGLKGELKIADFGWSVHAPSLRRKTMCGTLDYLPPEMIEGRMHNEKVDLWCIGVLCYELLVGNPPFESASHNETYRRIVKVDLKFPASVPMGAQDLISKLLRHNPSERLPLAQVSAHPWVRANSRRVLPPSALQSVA

[7] = test system: Leucine-rich repeat serine/threonine-protein kinase 2 (Homo sapiens), Q5S007 [G2019S]; test: Inhibition of LRRK2 G2019S mutant (unknown origin) at 10 uM incubated for 30 mins in presence of [gamma-33P]ATP by multidrop micro reagent based assay relative to control
Sequence of Leucine-rich repeat serine/threonine-protein kinase 2 (Homo sapiens), Q5S007 [G2019S] (Q5S007 whole entry G2019S): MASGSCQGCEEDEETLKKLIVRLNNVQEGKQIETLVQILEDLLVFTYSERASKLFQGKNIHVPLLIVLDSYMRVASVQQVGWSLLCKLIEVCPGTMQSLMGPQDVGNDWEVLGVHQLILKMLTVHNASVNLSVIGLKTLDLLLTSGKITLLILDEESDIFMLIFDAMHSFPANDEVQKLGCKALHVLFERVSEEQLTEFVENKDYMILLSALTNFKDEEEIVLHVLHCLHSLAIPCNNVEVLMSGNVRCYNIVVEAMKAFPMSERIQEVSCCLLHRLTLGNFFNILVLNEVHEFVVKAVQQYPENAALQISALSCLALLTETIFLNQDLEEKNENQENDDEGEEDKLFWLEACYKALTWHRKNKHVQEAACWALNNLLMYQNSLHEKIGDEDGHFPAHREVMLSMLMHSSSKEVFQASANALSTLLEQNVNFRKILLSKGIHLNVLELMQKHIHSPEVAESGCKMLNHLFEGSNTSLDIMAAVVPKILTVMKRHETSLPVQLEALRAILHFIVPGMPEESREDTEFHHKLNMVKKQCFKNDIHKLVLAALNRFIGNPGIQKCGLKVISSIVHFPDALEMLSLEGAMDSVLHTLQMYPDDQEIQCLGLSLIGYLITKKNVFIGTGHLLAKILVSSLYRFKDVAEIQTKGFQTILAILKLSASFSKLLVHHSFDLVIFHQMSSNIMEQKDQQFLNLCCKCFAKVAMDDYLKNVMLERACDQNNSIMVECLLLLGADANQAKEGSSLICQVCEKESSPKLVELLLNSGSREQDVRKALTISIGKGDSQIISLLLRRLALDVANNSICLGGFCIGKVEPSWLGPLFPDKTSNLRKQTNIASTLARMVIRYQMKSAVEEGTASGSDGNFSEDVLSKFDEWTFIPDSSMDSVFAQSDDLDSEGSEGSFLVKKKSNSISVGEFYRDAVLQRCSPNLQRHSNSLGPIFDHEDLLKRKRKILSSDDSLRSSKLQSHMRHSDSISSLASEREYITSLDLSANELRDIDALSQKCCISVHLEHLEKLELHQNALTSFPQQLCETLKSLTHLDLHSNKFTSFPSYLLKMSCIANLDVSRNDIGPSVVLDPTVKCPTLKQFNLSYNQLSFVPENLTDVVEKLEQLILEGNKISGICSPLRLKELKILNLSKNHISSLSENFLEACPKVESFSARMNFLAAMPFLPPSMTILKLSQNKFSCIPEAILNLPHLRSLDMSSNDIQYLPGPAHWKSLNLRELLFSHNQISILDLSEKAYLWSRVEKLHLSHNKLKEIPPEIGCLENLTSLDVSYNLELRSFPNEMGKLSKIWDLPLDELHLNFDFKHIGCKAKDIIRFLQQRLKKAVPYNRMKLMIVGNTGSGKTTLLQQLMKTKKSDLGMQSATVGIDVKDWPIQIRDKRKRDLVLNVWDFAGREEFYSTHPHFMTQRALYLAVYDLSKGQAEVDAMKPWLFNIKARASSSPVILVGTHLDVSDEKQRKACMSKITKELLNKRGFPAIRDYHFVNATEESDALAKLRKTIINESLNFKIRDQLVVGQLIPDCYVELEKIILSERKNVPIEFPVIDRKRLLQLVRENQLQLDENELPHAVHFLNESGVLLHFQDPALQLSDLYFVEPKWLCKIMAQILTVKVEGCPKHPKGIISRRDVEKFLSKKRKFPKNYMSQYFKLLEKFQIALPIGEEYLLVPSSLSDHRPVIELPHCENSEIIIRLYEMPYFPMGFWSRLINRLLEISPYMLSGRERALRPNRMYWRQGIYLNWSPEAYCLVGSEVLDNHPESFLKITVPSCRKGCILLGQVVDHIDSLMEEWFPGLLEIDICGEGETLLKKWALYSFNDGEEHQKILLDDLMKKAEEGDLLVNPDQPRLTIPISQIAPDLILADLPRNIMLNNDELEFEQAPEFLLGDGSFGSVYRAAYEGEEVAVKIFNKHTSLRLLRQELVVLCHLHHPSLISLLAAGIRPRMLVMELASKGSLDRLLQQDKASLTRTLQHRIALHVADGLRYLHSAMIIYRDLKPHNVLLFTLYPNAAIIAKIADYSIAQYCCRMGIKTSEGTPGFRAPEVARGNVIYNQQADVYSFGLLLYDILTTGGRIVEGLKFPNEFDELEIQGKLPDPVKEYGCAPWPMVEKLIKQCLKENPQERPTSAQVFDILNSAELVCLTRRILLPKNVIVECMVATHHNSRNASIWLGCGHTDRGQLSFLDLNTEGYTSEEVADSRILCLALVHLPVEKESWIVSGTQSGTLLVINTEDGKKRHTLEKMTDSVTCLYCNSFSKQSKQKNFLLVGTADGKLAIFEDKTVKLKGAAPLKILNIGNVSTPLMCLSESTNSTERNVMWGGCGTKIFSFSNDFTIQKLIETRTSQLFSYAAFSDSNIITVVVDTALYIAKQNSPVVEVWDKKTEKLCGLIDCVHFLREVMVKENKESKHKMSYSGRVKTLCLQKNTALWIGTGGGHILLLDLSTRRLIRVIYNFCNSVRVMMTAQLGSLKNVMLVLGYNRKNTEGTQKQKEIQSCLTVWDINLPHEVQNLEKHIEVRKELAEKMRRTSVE

SMILES | residual activity [1] | inhibition [2] | residual activity [3] | residual activity [4] | residual activity [5] | residual activity [6] | inhibition [7]
CC1=C(C(=O)Nc2cc3cn[nH]c3cc2F)C(c2ccc(C(F)(F)F)cc2)CC(=O)N1 (centres undefined) | 131% | 87% | 83% | 82% |  |  | 
Cc1cncc2cccc(S(=O)(=O)N3CCCNC[C@@H]3C)c12 |  | 69% |  | 84% |  |  | 
CCn1c(-c2nonc2N)nc2cnc(Oc3cccc(NC(=O)c4ccc(OCCN5CCOCC5)cc4)c3)cc21 [GSK-269962A] | 24% |  | 69% |  |  |  | 
C[C@@H](N)[C@H]1CC[C@H](C(=O)Nc2ccncc2)CC1 |  |  |  |  | 96% | 79% | 11%
O=S(=O)(c1cccc2cnccc12)N1CCCNCC1 [FASUDIL] |  |  |  |  | 110% | 51% | 67%
